Results on nine compounds are retold here after ChEMBL document CHEMBL1201862, “PubChem BioAssay data set” (2004).

Structures can show the parent of a compound that is named as a salt.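 Dose response: 5 concentrations. Exposure: 48 h. Format: 96-well plates. Endpoint: linear interpolation; highest concentration if not reached. GI50: concentration for 50% inhibition of growth.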 Activity calls are given as the source filed them. Cut-off read from the data, not from the text of the source: active = GI50 up to about 1.1 µM and inactive = higher. Some results are limits rather than exact numbers.

Test systems include K562; DMS-273; MCF7; PC-3; HL-60; SNB-19; TK-10; RXF 393; SK-MEL-2; SK-MEL-5; HCT-116; HT-29; IGROV-1; Hs-578T; U-251; HOP-62; SF-295; SF-268; OVCAR-3; BT-549.
Experiment in all cases: DTP human tumour cell line panel, 48 h

For `C(=N/NC1=NCCN1)/c1c2ccccc2c(/C=N\NC2=NCCN2)c2ccccc12`, the GI50 in the experiment with K562 is 66.4 nM (active); with DMS-273, 75.9 nM (active); in the experiment with MCF7, 56.8 nM (active); in the experiment on PC-3, 68.7 nM (active); in the experiment on HL-60 it was 52.8 nM (active); in the experiment with SNB-19, 74.6 nM (active). Besides, the GI50 in the experiment with TK-10 is 1030 nM (active); in the experiment on RXF 393 it was 155 nM (active); in the experiment on SK-MEL-2, 147 nM (active); in the experiment with SK-MEL-5, 260 nM (active); in the experiment on HCT-116, 60.3 nM (active); in the experiment on HT-29, 92.3 nM (active). Further, the GI50 with IGROV-1 was 211 nM (active); in the experiment on Hs-578T, 60 nM (active); with U-251, 61 nM (active); with HOP-62 it was 96.6 nM (active); with SF-295, 383 nM (active); with SF-268, 73.8 nM (active). For the same compound, in the experiment on OVCAR-3, the GI50 was 184 nM (active).
In the case of `COc1ccc(Sc2ccccc2[N+](=O)[O-])cc1`, the GI50 in the experiment with K562 is 3320 nM (inactive); with DMS-273, 4980 nM (inactive); in the experiment on HL-60 it was 3780 nM (inactive); in the experiment with SNB-19 it was > 100000 nM (inactive); in the experiment on TK-10, 34800 nM (inactive); in the experiment on RXF 393 it was 10200 nM (inactive). In addition, the GI50 in the experiment on SK-MEL-2 was 32100 nM (inactive); with SK-MEL-5, 45900 nM (inactive); in the experiment on HCT-116, 7640 nM (inactive); in the experiment on HT-29, 4620 nM (inactive); in the experiment on IGROV-1 it was 69800 nM (inactive); in the experiment on U-251 it was 10400 nM (inactive). Further, the GI50 in the experiment with HOP-62 is 16600 nM (inactive); with SF-295 it was > 10000 nM (inactive); with SF-268, 72800 nM (inactive); with OVCAR-3, 12400 nM (inactive).
As for `CN(C)CC1CCCCCCCCCC(CN(C)C)C1=O` (stereo not drawn), the GI50 in the experiment on DMS-273 was > 100000 nM (inactive); in the experiment with MCF7, 5070 nM (inactive); with PC-3, 4410 nM (inactive); in the experiment on HL-60, 15100 nM (inactive); in the experiment with SNB-19 it was > 39700 nM (inactive); in the experiment on TK-10, > 37800 nM (inactive). For the same compound, the GI50 in the experiment with RXF 393 was 8770 nM (inactive); in the experiment on BT-549, 6210 nM (inactive); in the experiment on SK-MEL-2 it was > 42900 nM (inactive); in the experiment with SK-MEL-5 it was 17300 nM (inactive); in the experiment with HCT-116, > 26700 nM (inactive); in the experiment on HT-29, 14300 nM (inactive). The GI50 is > 39900 nM (inactive) in the experiment on IGROV-1; 8180 nM (inactive) with Hs-578T; > 37500 nM (inactive) in the experiment with U-251; > 44000 nM (inactive) in the experiment with HOP-62; > 42100 nM (inactive) with SF-295; > 34300 nM (inactive) in the experiment on SF-268. Moreover, the GI50 with OVCAR-3 was > 20300 nM (inactive).
With `CCC1=CC2CN3CCc4c([nH]c5ccccc45)C(C(=O)OC)(C2)C13` (stereo not drawn), the GI50 was 39200 nM (inactive) in the experiment on K562; 48600 nM (inactive) in the experiment with DMS-273; 44600 nM (inactive) in the experiment with MCF7; 36700 nM (inactive) with HL-60; 46000 nM (inactive) with SNB-19; 35700 nM (inactive) with RXF 393. The GI50 was 67800 nM (inactive) with SK-MEL-2; 40700 nM (inactive) with SK-MEL-5; 35600 nM (inactive) with HCT-116; 22700 nM (inactive) with HT-29; 47300 nM (inactive) in the experiment with IGROV-1; 7260 nM (inactive) with U-251. In addition, the GI50 is 43600 nM (inactive) in the experiment on HOP-62, 45200 nM (inactive) in the experiment with SF-295, 54500 nM (inactive) in the experiment with SF-268 and 42800 nM (inactive) in the experiment with OVCAR-3.
With `NC1=NC(c2ccccc2)CC(c2cc(Cl)cc(Br)c2O)=N1` (stereo not drawn), the GI50 was 3000 nM (inactive) in the experiment on K562; 7550 nM (inactive) in the experiment on DMS-273; 2440 nM (inactive) in the experiment with MCF7; 3280 nM (inactive) in the experiment with HL-60; 17000 nM (inactive) with SNB-19; 18800 nM (inactive) with TK-10. The GI50 was 4360 nM (inactive) in the experiment on RXF 393; 4590 nM (inactive) with SK-MEL-2; 11700 nM (inactive) in the experiment on SK-MEL-5; 12100 nM (inactive) in the experiment with HCT-116; 13500 nM (inactive) in the experiment with HT-29; 14500 nM (inactive) with IGROV-1. The GI50 in the experiment with U-251 was 12500 nM (inactive); with HOP-62, 10400 nM (inactive); in the experiment on SF-295 it was 10900 nM (inactive); in the experiment on SF-268 it was 11700 nM (inactive); in the experiment on OVCAR-3, 15800 nM (inactive).
For the compound `COc1cccc2c1C(=O)c1c(O)c3c(c(O)c1C2=O)C[C@](O)(C(=O)CO)CC3OC1CC(N)C(OC2CCCCO2)C(C)O1` (stereo partly drawn), the GI50 in the experiment on K562 is 188 nM (active); with DMS-273, 19 nM (active); in the experiment with MCF7 it was 31.1 nM (active); in the experiment with HL-60, < 10 nM (active); in the experiment on SNB-19, 94.8 nM (active); in the experiment with RXF 393, 430 nM (active). Moreover, the GI50 with SK-MEL-2 was 1050 nM (active); in the experiment on SK-MEL-5, 115 nM (active); in the experiment on HCT-116, 65.9 nM (active); in the experiment with HT-29, 229 nM (active); with IGROV-1 it was 424 nM (active); with U-251, 65.8 nM (active). Also, the GI50 in the experiment on HOP-62 was 212 nM (active); in the experiment with SF-295, 48.3 nM (active); with SF-268, 293 nM (active); with OVCAR-3 it was 828 nM (active).
For the compound `Nc1ncnc2c(C3OC(CO)C(O)C3O)n[nH]c12` (stereo not drawn), the GI50 in the experiment with K562 is 74.1 nM (active); in the experiment on DMS-273, 82.6 nM (active); with MCF7, 69.8 nM (active); in the experiment with HL-60, 45 nM (active); in the experiment with SNB-19, 211 nM (active); in the experiment with RXF 393 it was 201 nM (active). Moreover, the GI50 with SK-MEL-2 was 86.3 nM (active); with SK-MEL-5 it was 1410 nM (inactive); in the experiment with HCT-116 it was 76.7 nM (active); in the experiment on HT-29, 89.5 nM (active); in the experiment with IGROV-1, 445 nM (active); in the experiment on U-251, 2530 nM (inactive). For the same compound, the GI50 in the experiment with HOP-62 is 50.9 nM (active); with SF-295 it was 427 nM (active).
As to `COc1ccc2[nH]c3c(C)c4c(c(C)c3c2c1)CN(C)C=C4`, the GI50 in the experiment on K562 is 3440 nM (inactive); with DMS-273, 750 nM (active); in the experiment on MCF7, 4530 nM (inactive); with PC-3, 11500 nM (inactive); in the experiment on HL-60 it was 22400 nM (inactive); in the experiment with SNB-19, 333 nM (active). The GI50 was 15100 nM (inactive) in the experiment on TK-10; 7210 nM (inactive) with RXF 393; 1970 nM (inactive) in the experiment with BT-549; 2620 nM (inactive) with SK-MEL-2; 1980 nM (inactive) in the experiment with SK-MEL-5; 2610 nM (inactive) with HCT-116. Also, the GI50 with HT-29 was 3930 nM (inactive); with IGROV-1, 1820 nM (inactive); in the experiment on Hs-578T, 240 nM (active); in the experiment with U-251 it was 219 nM (active); in the experiment with HOP-62, 679 nM (active); in the experiment on SF-295, 293 nM (active). Moreover, the GI50 was 175 nM (active) in the experiment on SF-268 and 4530 nM (inactive) in the experiment on OVCAR-3.
Turning to `CC[C@@]1(O)C(=O)OCc2c1cc1n(c2=O)Cc2cc3c(CN(C)C)c(O)ccc3nc2-1` [TOPOTECAN HYDROCHLORIDE], the GI50 is 59.2 nM (active) in the experiment on K562; 19.1 nM (active) in the experiment on DMS-273; 14.9 nM (active) in the experiment with MCF7; 77.1 nM (active) in the experiment with PC-3; 26.8 nM (active) in the experiment on HL-60; 17.9 nM (active) in the experiment with SNB-19. In addition, the GI50 in the experiment with RXF 393 is 39.5 nM (active); with SK-MEL-5, 32.5 nM (active); in the experiment with HCT-116, 40.8 nM (active); in the experiment on HT-29, 132 nM (active); in the experiment with IGROV-1, 141 nM (active); with Hs-578T it was 1100 nM (active). For the same compound, the GI50 was 12.5 nM (active) in the experiment on HOP-62, 14.8 nM (active) with SF-295, 14.7 nM (active) in the experiment with SF-268 and 240 nM (active) in the experiment on OVCAR-3.
